This is an account of results in ChEMBL document CHEMBL3872249, “Computer design, synthesis, and bioactivity analyses of drugs like fingolimod used in the treatment of multiple sclerosis” (Bioorg Med Chem, 2017).

What all share (type): functional
The test system of assay [1] is SK-N-SH. Put plainly: Effect on HDAC1 mRNA expression in human SK-N-SH cells at EC10 by qPCR method relative to beta-actin. (In general: Real-time PCR tracks product formation cycle by cycle.)
The subject of assay [2] is U-118-MG. Put plainly: Effect on STAT3 mRNA expression in human U118MG cells at EC10 by qPCR method relative to beta-actin.
Assay [3] concerns SH-SY5Y. Put plainly: Effect on CD44 mRNA expression in human SH-SY5Y cells at EC10 by qPCR method relative to beta-actin.
Assay [4] concerns SK-N-SH. Description: Effect on RAF1 mRNA expression in human SK-N-SH cells at EC10 by qPCR method relative to beta-actin.
Assay [5] concerns SH-SY5Y. Put plainly: Effect on GRM5 mRNA expression in human SH-SY5Y cells at EC10 by qPCR method relative to beta-actin.
Assay [6] deals with U-118-MG. Description: Effect on MAL mRNA expression in human U118MG cells at EC10 by qPCR method relative to beta-actin.
Assay [7] has as its system SH-SY5Y. Description: Effect on GRM7 mRNA expression in human SH-SY5Y cells at EC10 by qPCR method relative to beta-actin.
In assay [8] the test system is SH-SY5Y. Put plainly: Effect on PTGDR mRNA expression in human SH-SY5Y cells at EC10 by qPCR method relative to beta-actin.
Assay [9] deals with SK-N-SH. Put plainly: Effect on AGT mRNA expression in human SK-N-SH cells at EC10 by qPCR method relative to beta-actin.
Assay [10] deals with U-118-MG. Description: Effect on HIF1A mRNA expression in human U118MG cells at EC10 by qPCR method relative to beta-actin.
Assay [11] concerns SK-N-SH. Put plainly: Effect on CD44 mRNA expression in human SK-N-SH cells at EC10 by qPCR method relative to beta-actin.
In assay [12] the test system is SK-N-SH. Description: Effect on APP mRNA expression in human SK-N-SH cells at EC10 by qPCR method relative to beta-actin.
The test system of assay [13] is SH-SY5Y. Description: Effect on AGT mRNA expression in human SH-SY5Y cells at EC10 by qPCR method relative to beta-actin.
The test system of assay [14] is SH-SY5Y. Put plainly: Effect on HDAC1 mRNA expression in human SH-SY5Y cells at EC10 by qPCR method relative to beta-actin.
Assay [15] deals with SK-N-SH. Put plainly: Effect on PTGDR mRNA expression in human SK-N-SH cells at EC10 by qPCR method relative to beta-actin.
Assay [16] deals with U-118-MG. Description: Effect on HLA-DRB1 mRNA expression in human U118MG cells at EC10 by qPCR method relative to beta-actin.
Assay [17] relates to SH-SY5Y. Description: Effect on LTA mRNA expression in human SH-SY5Y cells at EC10 by qPCR method relative to beta-actin.
The subject of assay [18] is U-118-MG. Description: Effect on CRHR1 mRNA expression in human U118MG cells at EC10 by qPCR method relative to beta-actin.
For assay [19], the system named is U-118-MG. Put plainly: Effect on CSF1 mRNA expression in human U118MG cells at EC10 by qPCR method relative to beta-actin.
Assay [20] relates to U-118-MG. Put plainly: Effect on GRM2 mRNA expression in human U118MG cells at EC10 by qPCR method relative to beta-actin.
In assay [21] the test system is SH-SY5Y. Put plainly: Effect on MAPK1 mRNA expression in human SH-SY5Y cells at EC10 by qPCR method relative to beta-actin.
Assay [22] has as its system SH-SY5Y. Put plainly: Effect on EDN1 mRNA expression in human SH-SY5Y cells at EC10 by qPCR method relative to beta-actin.
For assay [23], the system named is SH-SY5Y. Description: Effect on GRM2 mRNA expression in human SH-SY5Y cells at EC10 by qPCR method relative to beta-actin.
In assay [24] the test system is SK-N-SH. Description: Effect on IL2 mRNA expression in human SK-N-SH cells at EC10 by qPCR method relative to beta-actin.
For assay [25], the system named is SH-SY5Y. Description: Effect on GCGR mRNA expression in human SH-SY5Y cells at EC10 by qPCR method relative to beta-actin.
Assay [26] concerns U-118-MG. Put plainly: Effect on VEGFA mRNA expression in human U118MG cells at EC10 by qPCR method relative to beta-actin.
The test system of assay [27] is SK-N-SH. Description: Effect on GRM2 mRNA expression in human SK-N-SH cells at EC10 by qPCR method relative to beta-actin.
The test system of assay [28] is U-118-MG. Put plainly: Effect on GRM1 mRNA expression in human U118MG cells at EC10 by qPCR method relative to beta-actin.
Assay [29] relates to U-118-MG. Description: Effect on IL13 mRNA expression in human U118MG cells at EC10 by qPCR method relative to beta-actin.
For assay [30], the system named is SK-N-SH. Put plainly: Effect on SOD1 mRNA expression in human SK-N-SH cells at EC10 by qPCR method relative to beta-actin.
Assay [31] deals with SH-SY5Y. Put plainly: Effect on SOD1 mRNA expression in human SH-SY5Y cells at EC10 by qPCR method relative to beta-actin.
The test system of assay [32] is SK-N-SH. Put plainly: Effect on TGFB2 mRNA expression in human SK-N-SH cells at EC10 by qPCR method relative to beta-actin.
Assay [33] has as its system U-118-MG. Put plainly: Effect on CCL5 mRNA expression in human U118MG cells at EC10 by qPCR method relative to beta-actin.
Assay [34] has as its system SH-SY5Y. Description: Effect on CXCL9 mRNA expression in human SH-SY5Y cells at EC10 by qPCR method relative to beta-actin.
Assay [35] concerns SH-SY5Y. Description: Effect on TNFRSF1B mRNA expression in human SH-SY5Y cells at EC10 by qPCR method relative to beta-actin.
Assay [36] concerns SH-SY5Y. Put plainly: Effect on PLP1 mRNA expression in human SH-SY5Y cells at EC10 by qPCR method relative to beta-actin.
For assay [37], the system named is SK-N-SH. Description: Effect on TGFB1 mRNA expression in human SK-N-SH cells at EC10 by qPCR method relative to beta-actin.
Assay [38] relates to SH-SY5Y. Put plainly: Effect on TGFB1 mRNA expression in human SH-SY5Y cells at EC10 by qPCR method relative to beta-actin.
For assay [39], the system named is U-118-MG. Put plainly: Effect on GRM4 mRNA expression in human U118MG cells at EC10 by qPCR method relative to beta-actin.
The subject of assay [40] is U-118-MG. Put plainly: Effect on S1PR3 mRNA expression in human U118MG cells at EC10 by qPCR method relative to beta-actin.
For assay [41], the system named is SK-N-SH. Put plainly: Effect on TNFRSF1B mRNA expression in human SK-N-SH cells at EC10 by qPCR method relative to beta-actin.
The test system of assay [42] is SH-SY5Y. Description: Effect on TGFB2 mRNA expression in human SH-SY5Y cells at EC10 by qPCR method relative to beta-actin.
Assay [43] relates to SH-SY5Y. Description: Effect on HLA-DRB1 mRNA expression in human SH-SY5Y cells at EC10 by qPCR method relative to beta-actin.
Assay [44] concerns SH-SY5Y. Description: Effect on CCL5 mRNA expression in human SH-SY5Y cells at EC10 by qPCR method relative to beta-actin.

Consider `CCCCCCCCc1ccc(CCC(N)(CO)CO)cc1` [FINGOLIMOD], for which the “fold change (FC)” value in the assay with SK-N-SH [1] was -6.6778; with U-118-MG [2], -2.5624; in the assay on SH-SY5Y [3], -4.0629; with SK-N-SH [4] it was -5.2666; in the assay with SH-SY5Y [5], -3.3753; with U-118-MG [6], -3.8671. Also, the “fold change (FC)” value in the assay with SH-SY5Y [7] was -5.361; in the assay with SH-SY5Y [8], -4.9331; in the assay with SK-N-SH [9], 5.63; in the assay with U-118-MG [10], -3.2716; in the assay on SK-N-SH [11], -4.3753; in the assay on SK-N-SH [12] it was -8.0801. The “fold change (FC)” value is 3.9041 in the assay with SH-SY5Y [13], -15.9446 with SH-SY5Y [14], -4.3981 in the assay with SK-N-SH [15] and -3.4313 in the assay on U-118-MG [16].

With `CCCCCCCCn1nnnc1CCC(N)(CO)CO.Cl`, the “fold change (FC)” value is -2.54 with SH-SY5Y [17]; 4.2936 in the assay with U-118-MG [18]; -4.2226 in the assay with U-118-MG [19]; -3.2823 with U-118-MG [20]; -2.8875 with SH-SY5Y [21]; 7.826 with SH-SY5Y [22]. Further, the “fold change (FC)” value was -4.9647 in the assay on SH-SY5Y [23]; -4.9224 in the assay on SK-N-SH [24]; -4.2885 in the assay with SH-SY5Y [25]; -4.4402 in the assay with U-118-MG [26]; -5.1941 in the assay with SK-N-SH [27]; -6.1329 with U-118-MG [28]. The “fold change (FC)” value in the assay on U-118-MG [29] is -5.9963.

On to `CCCCCCCCn1nnnc1-c1ccc(C(O)CC(N)(CO)CO)cc1.Cl` (centres undefined), for which the “fold change (FC)” value in the assay with SK-N-SH [30] is -3.3929; with SH-SY5Y [31], -3.4032; in the assay on SK-N-SH [32] it was -4.9847; with U-118-MG [33], -5.3124; in the assay on SH-SY5Y [34], -3.0249; in the assay on SH-SY5Y [35], -2.9117. Further, the “fold change (FC)” value is 3.7859 in the assay with SH-SY5Y [36]; -5.3267 with SK-N-SH [37]; -5.0784 in the assay with SH-SY5Y [38]; -5.0773 in the assay with U-118-MG [39]; -4.6278 in the assay with U-118-MG [40]; -5.5404 with SK-N-SH [41]. Besides, the “fold change (FC)” value is on record as -2.8716 in the assay with SH-SY5Y [42], -2.5613 in the assay with SH-SY5Y [43] and -3.3855 in the assay on SH-SY5Y [44].
